Assay results: US20130045995A1 (priority 2010, published 2013)
Like-named read-outs stand apart in the source and are kept apart here.

What was measured:
[1] = Measurement of logP values by HPLC on reversed phase columns (EEC directive 79/831 Annex V.A8); format: physicochemical; details: for Log P: pH 2.7, 0.1% formic acid in water / acetonitrile; for chromatographic logP: reversed-phase HPLC column
Protocol: Measurement of logP values was performed according EEC directive 79/831 Annex V.A8 by HPLC (High Performance Liquid Chromatography) on reversed phase columns with the following methods: […]

[2] = test system: Phytophthora infestans; format: in vivo; details: 500 ppm of active ingredient; tomato, preventive; evaluated 7 days after inoculation
[3] = test system: Plasmopara viticola; test: Plasmopara test (grapevines) / preventive; format: in vivo; details: 100 ppm of active ingredient, evaluated 6 days after inoculation
Protocol: • Plasmopara Test (Grapevines)/Preventive
Solvent: 24.5 parts by weight of acetone • 24.5 parts by weight of dimethylacetamide
Emulsifier: 1 part by weight of alkylaryl polyglycol ether
To produce a suitable preparation of active compound, 1 part by weight of active compound is mixed with the stated amounts of solvent and emulsifier, and the concentrate is diluted with water to the desired concentration.
To test for preventive activity, young plants are sprayed with the preparation of active compound at the stated rate of application. After the spray coating has dried on, the plants are inoculated with an aqueous spore suspension of Plasmopara viticola and then remain for 1 day in an incubation cabinet at approximately 20° C. and a relative atmospheric humidity of 100%. The plant is subsequently placed for 4 days in a greenhouse at approximately 21° C. and a relative atmospheric humidity of approximately 90%. The plants are then misted and placed for 1 day in an incubation cabinet.
The test is evaluated 6 days after the inoculation. 0% means an efficacy which corresponds to that of the untreated control, while an efficacy of 100% means that no disease is observed.

With Cc1snnc1C(=NOCc1csc(NC(=O)C2CC(=O)c3cc(F)ccc3O2)n1)c1ccccc1 (mixture of isomers) [Example 7] the “Log P” value ([1]; HPLC) was 3.72 and the efficacy [2] was 98%.

For Cc1snnc1C(=NOCc1cccc(NC(=O)C2CN(C)c3ccccc3O2)n1)c1ccccc1 (racemic) [Example 18], the “Log P” value ([1]; HPLC) was 4.56 and the efficacy [2] was 100%.

In the case of Cc1snnc1C(=NOCc1cccc(NC(=O)C2Cc3ccccc3O2)n1)c1ccccc1 (racemic) [Example 15], the efficacy [2] is reported as 100% and the efficacy [3] is reported as 74%.

In the case of Cc1snnc1C(=NOCc1cccc(NC(=O)C2CCc3ccccc3O2)n1)c1ccccc1 (racemic) [Example 14], the “Log P” value ([1]; HPLC) is reported as 4.66 and the efficacy [2] is reported as 97%.

Cc1snnc1C(=NOCc1csc(NC(=O)C2COc3ccccc3O2)n1)c1ccccc1 (stereo not drawn) [Example 1, N-{4-[({[(5-methyl-1,2,3-thiadiazol-4-yl)(phenyl)methylene]amino}oxy)methyl]-1,3-thiazol-2-yl}-2,3-dihydro-1,4-benzodioxine-2-carboxamide] gave a chromatographic logP ([1]; pH 2.7, [I1] main isomer, HPLC, pH 2.7, 0.1% formic acid, read-out: Log P) of 3.99, a chromatographic logP ([1]; pH 2.7, mixture of Z and E diastereoisomers, two values, read-out: logP(HCOOH)) of 3.99 and an efficacy [2] of 100%. The efficacy [3] was 94%.

In the case of Cc1snnc1C(=NOCc1cccc(NC(=O)C2COc3ccccc3O2)n1)c1ccccc1 (mixture of isomers) [Example 10], the efficacy [2] is reported as 95% and the efficacy [3] is reported as 98%.

In the case of Cc1cccc2c1OC(C(=O)Nc1cccc(CON=C(c3ccccc3)c3nnsc3C)n1)CO2 (racemic) [Example 12], the “Log P” value ([1]; HPLC) is reported as 4.73 and the efficacy [2] is reported as 95%.

Cc1snnc1C(=NOCc1csc(NC(=O)C2CCc3ccccc3O2)n1)c1ccccc1 (racemic) [Example 2] gave an efficacy [2] of 100%.

In the case of Cc1snnc1C(=NOCc1csc(NC(=O)C2COc3ccccc3O2)n1)c1ccccc1 (racemic) [Example 6], the efficacy [2] is reported as 100% and the efficacy [3] is reported as 77%.

For Cc1snnc1C(=NOCc1cccc(NC(=O)C2COc3ccccc3O2)n1)c1ccccc1 (racemic) [Example 13], the efficacy [2] was 100%.

Cc1snnc1C(=NOCc1csc(NC(=O)C2CN(C)c3ccccc3O2)n1)c1ccccc1 (racemic) [Example 17] gave an efficacy [2] of 97%.

Cc1snnc1C(=NOCc1csc(NC(=O)C2Cc3ccccc3O2)n1)c1ccccc1 (racemic) [Example 3] gave an efficacy [2] of 100%.

In the case of Cc1snnc1C(=NOCc1cccc(NC(=O)C2CC(=O)c3cc(F)ccc3O2)n1)c1ccccc1 (mixture of isomers) [Example 16], the efficacy [2] is reported as 95%.

Compound Cc1cccc2c1OC(C(=O)Nc1nc(CON=C(c3ccccc3)c3nnsc3C)cs1)CO2 (racemic) [Example 5] has an efficacy [2] of 100%.
